Key:
[1] = AUC (0 to infinity) in human plasma at 60 mg, po by LC-MS/MS analysis; assay type: ADME, organism-based; set-up: dose 60 mg, route oral, time infinity
Blood [2] = test: AUC (0 to infinity) in human whole blood at 60 mg, po by radio-HPLC chromatogram analysis; assay type: ADME, organism-based; set-up: dose 60 mg, time infinity, route oral; details: in vivo
[3] = Cmax in human plasma at 60 mg, po by LC-MS/MS analysis; assay type: ADME, organism-based; set-up: dose 60 mg, route oral
[4] = Elimination half life in human; assay type: ADME, organism-based; details: in vivo, read-out: beta t1/2 (converted)
[5] = Retention time of the compound; assay type: physicochemical
Plasma [6] = test: AUC (0 to infinity) in human plasma at 60 mg, po by radio-HPLC chromatogram analysis; assay type: ADME, organism-based; set-up: dose 60 mg, time infinity, route oral; details: in vivo
Plasma [7] = test: AUC (0 to t) in human plasma at 60 mg, po by radio-HPLC chromatogram analysis; assay type: ADME, organism-based; details: in vivo
Plasma [8] = test: Cmax in human plasma at 60 mg, po by radio-HPLC chromatogram analysis; assay type: ADME, organism-based; set-up: dose 60 mg, route oral; details: in vivo
[9] = Tmax in human plasma at 60 mg, po by LC-MS/MS analysis; assay type: ADME, organism-based
[10] = Drug metabolism in human assessed as metabolite excretion in feces at 60 mg, po after 168 hrs by radio-HPLC chromatogram analysis; assay type: ADME, organism-based; details: in vivo
[11] = AUC (0 to t) in human plasma at 60 mg, po by LC-MS/MS analysis; assay type: ADME, organism-based
Homo sapiens = test: Toxicity in human assessed as sign of adverse effect at 60 mg, po; assay type: organism-based; details: in vivo
clinical = details: human, in vivo
[12] = Terminal elimination half life in human plasma at 60 mg, po by LC-MS/MS analysis; assay type: ADME, organism-based; details: read-out: beta t1/2 (converted)
Blood [13] = test: Cmax in human whole blood at 60 mg, po by radio-HPLC chromatogram analysis; assay type: ADME, organism-based; set-up: dose 60 mg, route oral; details: in vivo
Blood [14] = test: AUC (0 to t) in human whole blood at 60 mg, po by radio-HPLC chromatogram analysis; assay type: ADME, organism-based; details: in vivo
[15] = Drug excretion in feces of human treated with 60 mg, po of [14C]edoxaban after 168 hrs by radio-HPLC chromatogram analysis; assay type: ADME, organism-based; details: in vivo
Plasma [16] = test: Terminal elimination half life in human plasma treated with 60 mg, po of [14C]edoxaban by LC-MS/MS analysis; assay type: ADME, organism-based
Plasma [17] = test: Cmax in human plasma treated with 60 mg, po of [14C]edoxaban by LC-MS/MS analysis; assay type: ADME, organism-based; set-up: dose 60 mg, route oral; details: in vivo
Plasma [18] = test: Tmax in human plasma treated with 60 mg, po of [14C]edoxaban by LC-MS/MS analysis; assay type: ADME, organism-based; details: in vivo
[19] = Drug excretion in urine of human treated with 60 mg, po of [14C]edoxaban after 168 hrs by radio-HPLC chromatogram analysis; assay type: ADME, organism-based; details: in vivo
Plasma [20] = test: AUC (0 to t) in human plasma treated with 60 mg, po of [14C]edoxaban by LC-MS/MS analysis; assay type: ADME, organism-based; details: in vivo
Plasma [21] = test: AUC (0 to infinity) in human plasma treated with 60 mg, po of [14C]edoxaban by LC-MS/MS analysis; assay type: ADME, organism-based; set-up: dose 60 mg, time infinity, route oral; details: in vivo

| SMILES | Retention_time [5] [min] | beta t1/2 (Plasma [16]) [h] | Cmax (Plasma [17]) [ng/mL] | Tmax (Plasma [18]) [h] | Drug excretion [19] [%] | AUCt (Plasma [20]) [ng·h/mL] | AUC (Plasma [21]) [ng·h/mL] | Drug excretion [15] [%] | also measured |
| --- | --- | --- | --- | --- | --- | --- | --- | --- | --- |
| CN1CCc2nc([14C](=O)N[C@@H]3C[C@@H](C(=O)N(C)C)CC[C@@H]3NC(=O)C(=O)Nc3ccc(Cl)cn3)sc2C1 | 54.08 | – | – | – | – | – | – | – | AUC(0-inf) [1]: 1600 ng·h/mL; AUC (Blood [2]): 1.673 ugequiv.h/ml; Cmax [3]: 332 ng/mL; half-life [4]: 8 h; AUC (Plasma [6]): 1.947 ugequiv.h/ml; AUCt (Plasma [7]): 1.683 ugequiv.h/ml; Cmax (Plasma [8]): 0.349 ugequiv/ml; Tmax [9]: 0.5 h; Drug excretion [10]: 0.05%; AUC(0-t) [11]: 1580 ng·h/mL; Activity (Homo sapiens): Non-toxic; Tmax (clinical): 1 h; half-life [12]: 7.4 h; Cmax (Blood [13]): 0.352 ugequiv/ml; AUCt (Blood [14]): 1.269 ugequiv.h/ml |
| CN1CCc2nc(C(=O)N[C@@H]3C[C@@H](C(=O)N(C)C)CC[C@@H]3NC(=O)C(=O)O)sc2C1 | 25.41 | 6.9 | 14.9 | 1.8 | 1.85 | 94.7 | 95.8 | – | Drug excretion ([15]; BLD = below limit of detection): BLD |
| CN(C)C(=O)[C@H]1CC[C@H](NC(=O)C(=O)Nc2ccc(Cl)cn2)[C@H](NC(=O)c2nc3c(s2)C[N+](C)([C@@H]2O[C@H](C(=O)[O-])[C@@H](O)[C@H](O)[C@H]2O)CC3)C1 (stereo partly specified) | 38.9 | – | – | – | – | – | – | – | – |
| CN1CCc2nc(C(=O)N[C@@H]3C[C@@H](C(=O)N(C)C)CC[C@@H]3N)sc2C1 (stereo in doubt; M2) | 34.09 | – | – | – | – | – | – | – | – |

More lines, main results first:

| Retention_time [5] [min] | beta t1/2 (Plasma [16]) [h] | Cmax (Plasma [17]) [ng/mL] | Tmax (Plasma [18]) [h] | Drug excretion [19] [%] | AUCt (Plasma [20]) [ng·h/mL] | AUC (Plasma [21]) [ng·h/mL] | Drug excretion [15] [%] | SMILES | also measured |
| --- | --- | --- | --- | --- | --- | --- | --- | --- | --- |
| 41.45 | – | – | – | – | – | – | – | CN(C)C(=O)[C@H]1CC[C@H](NC(=O)C(=O)Nc2ccc(Cl)cn2)[C@H](NC(=O)c2nc3c(s2)C[N+](C)([O-])CC3)C1 (stereo partly specified) | – |
| 40.84 | 8.2 | 22.2 | 1.8 | 1.56 | 145.5 | 147 | 1.93 | CN1CCc2nc(C(=O)N[C@@H]3C[C@@H](C(=O)O)CC[C@@H]3NC(=O)C(=O)Nc3ccc(Cl)cn3)sc2C1 | – |
| 46.52 | 9 | 6.99 | 1 | 0.45 | 55.1 | 56.2 | 1.66 | CN(C)C(=O)[C@H]1CC[C@H](NC(=O)C(=O)Nc2ccc(Cl)cn2)[C@H](NC(=O)c2nc3c(s2)CNCC3)C1 | – |
| 49.97 | 9 | 0.63 | 1.8 | – | 3.5 | 4.41 | 0.34 | CNC(=O)[C@H]1CC[C@H](NC(=O)C(=O)Nc2ccc(Cl)cn2)[C@H](NC(=O)c2nc3c(s2)CN(C)CC3)C1 (stereo in doubt; M8) | Drug excretion ([19]; BLD = below limit of detection): BLD |

From ChEMBL document CHEMBL3526010, “Pharmacokinetics, biotransformation, and mass balance of edoxaban, a selective, direct factor Xa inhibitor, in humans” (Drug Metab Dispos, 2012)
